Target: 5-hydroxytryptamine receptor 2A (Homo sapiens, UniProt P28223)
Experiment: Agonist activity at recombinant human 5HT2A receptor expressed in Flp-In-293 cells assessed as increase in calcium influx measured for 300 secs by Fluo-4 dye based FLIPR assay

5-hydroxytryptamine receptor 2A, sequence (P28223 whole entry): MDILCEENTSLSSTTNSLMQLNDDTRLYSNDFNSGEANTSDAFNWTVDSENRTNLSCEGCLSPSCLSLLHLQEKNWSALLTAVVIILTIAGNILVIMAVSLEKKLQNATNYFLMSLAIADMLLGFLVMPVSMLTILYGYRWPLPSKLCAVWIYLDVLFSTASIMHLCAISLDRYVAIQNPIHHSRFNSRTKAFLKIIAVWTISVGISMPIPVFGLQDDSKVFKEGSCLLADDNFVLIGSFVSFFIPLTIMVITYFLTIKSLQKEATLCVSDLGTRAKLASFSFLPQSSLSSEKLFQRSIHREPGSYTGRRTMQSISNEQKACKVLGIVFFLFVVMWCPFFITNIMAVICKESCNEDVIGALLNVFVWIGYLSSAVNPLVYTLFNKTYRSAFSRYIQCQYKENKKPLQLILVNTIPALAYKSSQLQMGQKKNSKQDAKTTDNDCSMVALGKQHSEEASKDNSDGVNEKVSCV

Question: NC[C@H]1C[C@]1(F)c1cccc(F)c1 was tested. Which EC50 did it give?
Answer: 2.69 nM

From BindingDB's records for doi:10.1016/j.ejmech.2019.111626 (University of Illinois At Chicago, 2019)
